# ChEMBL document CHEMBL4715916, “Synthesis and biological evaluation of a ring analogs of the selective CB2 inverse agonist SMM-189” (Bioorg Med Chem, 2021)
# Activity calls are given as the source filed them. The rule behind the calls is not given here.
# What was measured:
# Cannabinoid receptor 1 [1] = molecular target: T1, Cannabinoid receptor 1 (Homo sapiens, UniProt P21554); test: Displacement of [3H]-CP55940 from human recombinant cannabinoid CB1 receptor expressed in HEK cell membranes incubated for 1.5 hrs by liquid scintillation counting method; design: species or system Cell membrane
# Cannabinoid receptor 2 [2] = molecular target: T2, Cannabinoid receptor 2 (Homo sapiens, UniProt P34972); test: Displacement of [3H]-CP55940 from human recombinant cannabinoid CB2 receptor expressed in HEK cell membranes incubated for 1.5 hrs by liquid scintillation counting method; design: species or system Cell membrane
# Homo sapiens = organism: Homo sapiens; test: Selectivity ratio of Ki for displacement of [3H]-CP55940 from human recombinant cannabinoid CB1 receptor expressed in HEK cell membranes to displacement of [3H]-CP55940 from human recombinant cannabinoid CB2 receptor expressed in HEK cell membranes
# Cannabinoid receptor 1 [3] = molecular target: T1, Cannabinoid receptor 1; test: Inverse agonist activity at human recombinant cannabinoid CB1 receptor expressed in HEK cells transfected with CNG assessed as increase in cAMP level measured up to 1 hr by ACTOne membrane potential dye based assay; format: functional, cell-based; settings: time hrs <=1
# Cannabinoid receptor 1 [4] = molecular target: T1, Cannabinoid receptor 1; test: Inverse agonist activity at human recombinant cannabinoid CB1 receptor expressed in HEK cells transfected with CNG assessed as increase in cAMP level measured up to 1 hr by ACTOne membrane potential dye based assay relative to control; format: functional, cell-based; settings: time hrs <=1
# Cannabinoid receptor 2 [5] = molecular target: T2, Cannabinoid receptor 2; test: Inverse agonist activity at human recombinant cannabinoid CB2 receptor expressed in HEK cells transfected with CNG assessed as increase in cAMP level measured up to 1 hr by ACTOne membrane potential dye based assay; format: functional, cell-based
# Cannabinoid receptor 2 [6] = molecular target: T2, Cannabinoid receptor 2; test: Inverse agonist activity at human recombinant cannabinoid CB2 receptor expressed in HEK cells transfected with CNG assessed as increase in cAMP level measured up to 1 hr by ACTOne membrane potential dye based assay relative to control; format: functional, cell-based; settings: time hrs <=1
# Cannabinoid receptor 1 [7] = molecular target: T1, Cannabinoid receptor 1; test: Inverse agonist activity at cannabinoid CB1 receptor in human U2OS cells assessed as induction of beta-arrestin recruitment using CCF4/AM as substrate preincubated for 5 hrs followed by substrate addition and measured after 2 hrs by Tango assay; format: cell-based; settings: time 7.0 hrs
# Cannabinoid receptor 1 [8] = molecular target: T1, Cannabinoid receptor 1; test: Inverse agonist activity at cannabinoid CB1 receptor in human U2OS cells assessed as emission ratio using CCF4/AM as substrate preincubated for 5 hrs followed by substrate addition and measured after 2 hrs by Tango assay; format: cell-based; settings: time 7.0 hrs
# Cannabinoid receptor 2 [9] = molecular target: T2, Cannabinoid receptor 2; test: Inverse agonist activity at cannabinoid CB2 receptor in human U2OS cells assessed as induction of beta-arrestin recruitment using CCF4/AM as substrate preincubated for 5 hrs followed by substrate addition and measured after 2 hrs by Tango assay; format: cell-based
# Cannabinoid receptor 2 [10] = molecular target: T2, Cannabinoid receptor 2; test: Inverse agonist activity at cannabinoid CB2 receptor in human U2OS cells assessed as emission ratio using CCF4/AM as substrate preincubated for 5 hrs followed by substrate addition and measured after 2 hrs by Tango assay; format: cell-based; settings: time 7.0 hrs
# C8-B4 [11] = test: Effect on LPS-stimulated microglia polarization in mouse C8-B4 cells assessed as decrease in CD16/32 expression at 20 uM after 24 hrs by cell polarization assay; format: functional, cell-based
# C8-B4 [12] = test: Effect on LPS-stimulated microglia polarization in mouse C8-B4 cells assessed as decrease in CD68 expression at 20 uM after 24 hrs by cell polarization assay; format: functional, cell-based
# C8-B4 [13] = test: Effect on LPS-stimulated microglia polarization in mouse C8-B4 cells assessed as increase in CD204 expression at 20 uM after 24 hrs by cell polarization assay; format: functional, cell-based
# C8-B4 [14] = test: Effect on LPS-stimulated microglia polarization in mouse C8-B4 cells assessed as increase in CD206 expression at 20 uM after 24 hrs by cell polarization assay; format: functional, cell-based
# IMhu [15] = test: Effect on LPS-stimulated microglia polarization in human IMhu cells assessed as decrease in CD16 expression at 35 uM after 24 hrs by cell polarization assay; format: functional, cell-based
# IMhu [16] = test: Effect on LPS-stimulated microglia polarization in human IMhu cells assessed as decrease in CD68 expression at 35 uM after 24 hrs by cell polarization assay; format: functional, cell-based
# IMhu [17] = test: Effect on LPS-stimulated microglia polarization in human IMhu cells assessed as increase in CD204 expression at 35 uM after 24 hrs by cell polarization assay; format: functional, cell-based
# IMhu [18] = test: Effect on LPS-stimulated microglia polarization in human IMhu cells assessed as increase in CD206 expression at 35 uM after 24 hrs by cell polarization assay; format: functional, cell-based
# IMhu [19] = test: Inhibition of cell migration in LPS-induced human IMhu cells at 10 uM after 24 hrs by scratch assay; format: functional
# IMhu [20] = test: Induction of morphological changes in LPS-induced human IMhu cells assessed as ramified cell at 10 uM after 24 hrs by DAPI/Phalloidin staining based fluorescence microscopic analysis; format: functional
# IMhu [21] = test: Induction of morphological changes in LPS-induced human IMhu cells assessed as small cell body at 10 uM after 24 hrs by DAPI/Phalloidin staining based fluorescence microscopic analysis; format: functional
# IMhu [22] = test: Induction of morphological changes in LPS-induced human IMhu cells assessed as elongated projection formation at 10 uM after 24 hrs by DAPI/Phalloidin staining based fluorescence microscopic analysis; format: functional
# IMhu [23] = test: Cytoprotective activity in human IMhu cells assessed as reduction in LPS-induced ROS generation at 10 uM after 50 to 1440 mins by fluorescence based assay; format: functional, cell-based; settings: time 50-1440 min
# T2 sequence (P34972 whole entry): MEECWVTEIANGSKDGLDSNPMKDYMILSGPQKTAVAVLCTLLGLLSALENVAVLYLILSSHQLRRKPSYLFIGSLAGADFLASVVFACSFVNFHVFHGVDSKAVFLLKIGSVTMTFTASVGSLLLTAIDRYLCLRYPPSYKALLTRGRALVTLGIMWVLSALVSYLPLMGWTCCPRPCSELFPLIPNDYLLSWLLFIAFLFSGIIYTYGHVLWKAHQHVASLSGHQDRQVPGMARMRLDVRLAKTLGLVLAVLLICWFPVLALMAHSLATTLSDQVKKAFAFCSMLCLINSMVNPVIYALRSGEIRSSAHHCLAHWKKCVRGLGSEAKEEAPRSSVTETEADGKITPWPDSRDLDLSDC
# T1 sequence (P21554 whole entry): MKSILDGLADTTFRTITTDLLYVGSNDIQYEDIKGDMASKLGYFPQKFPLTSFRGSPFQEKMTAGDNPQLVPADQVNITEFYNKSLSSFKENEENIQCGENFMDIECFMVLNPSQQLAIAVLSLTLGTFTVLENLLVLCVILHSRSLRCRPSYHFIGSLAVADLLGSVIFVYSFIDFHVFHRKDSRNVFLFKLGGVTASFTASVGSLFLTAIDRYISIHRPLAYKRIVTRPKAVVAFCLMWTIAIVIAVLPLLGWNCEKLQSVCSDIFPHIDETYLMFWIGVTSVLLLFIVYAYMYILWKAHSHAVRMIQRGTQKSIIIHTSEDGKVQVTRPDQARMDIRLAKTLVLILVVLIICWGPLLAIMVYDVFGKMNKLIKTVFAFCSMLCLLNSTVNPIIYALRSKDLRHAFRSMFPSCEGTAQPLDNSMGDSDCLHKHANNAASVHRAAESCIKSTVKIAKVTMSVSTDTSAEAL
Compound,Ki (Cannabinoid receptor 1 [1]),Ki (Cannabinoid receptor 2 [2]),Ratio Ki (Homo sapiens),pEC50 (Cannabinoid receptor 1 [3]),Emax (Cannabinoid receptor 1 [4]),EC50 (Cannabinoid receptor 2 [5]),Emax (Cannabinoid receptor 2 [6]; filed as inverse agonist),pEC50 (Cannabinoid receptor 1 [7]),Ratio (Cannabinoid receptor 1 [8]),EC50 (Cannabinoid receptor 2 [9]),Ratio (Cannabinoid receptor 2 [10]; filed as inverse agonist),pEC50 (Cannabinoid receptor 2 [5]; time hrs <=1),Emax (Cannabinoid receptor 2 [6]),further results
O=C(c1cc(O)c(-c2cccc(C(F)(F)F)c2)c(O)c1)c1cccs1,> 10000 nM,154 nM,> 64.9,inactive,inactive,38.9 nM,57.2%,inactive,inactive,8510 nM,1.19,,,Activity (C8-B4 [11]): Active; Activity (C8-B4 [12]): Active; Activity (C8-B4 [13]): Active; Activity (C8-B4 [14]): Active; Activity (IMhu [15]): Active; Activity (IMhu [16]): Active; Activity (IMhu [17]): Active; Activity (IMhu [18]): Active; inhibition (IMhu [19]): Active; Activity (IMhu [20]): Active; Activity (IMhu [21]): Active; Activity (IMhu [22]): Active; Activity (IMhu [23]): Active
O=C(c1cc(O)c(-c2cc(C(F)(F)F)cc(C(F)(F)F)c2)c(O)c1)c1cccs1,3740 nM,187 nM,20,inactive,inactive,676 nM,49.7%,inactive,inactive,1290 nM,0.94,,,
Cc1cccc(-c2c(O)cc(C(=O)c3cccs3)cc2O)c1,9530 nM,975 nM,9.77,inactive,inactive,200 nM,51.7%,inactive,inactive,6170 nM,2.68,,,
O=C(c1ccccc1)c1cc(O)c(-c2cccc(C(F)(F)F)c2)c(O)c1,> 10000 nM,204 nM,> 49,inactive,inactive,240 nM,66%,inactive,inactive,3470 nM,1.41,,,
O=C(c1ccccc1)c1cc(O)c(-c2ccnc(F)c2)c(O)c1,> 10000 nM,> 10000 nM,,inactive,inactive,,,,,,,inactive,inactive,
O=C(c1ccccc1)c1cc(O)c(-c2ccc3c(c2)OCO3)c(O)c1,> 10000 nM,> 10000 nM,,inactive,inactive,,,,,,,,inactive,Emax (Cannabinoid receptor 2 [5]; time hrs <=1): inactive
O=C(c1ccccc1)c1cc(O)c(-c2ccc3c(c2)OCCO3)c(O)c1,> 10000 nM,4740 nM,> 2.11,inactive,inactive,4900 nM,49%,,,,,,,
O=C(c1ccccc1)c1cc(O)c(-c2ccncc2)c(O)c1,> 10000 nM,> 10000 nM,,inactive,inactive,,,,,,,inactive,inactive,
O=C(c1ccccc1)c1cc(O)c(-c2cccc(CO)c2)c(O)c1,> 10000 nM,2490 nM,> 4,inactive,inactive,,,,,,,inactive,inactive,
O=C(c1ccccc1)c1cc(O)c(-c2cc(F)cc(F)c2)c(O)c1,1080 nM,1630 nM,0.66,inactive,inactive,1700 nM,63%,inactive,inactive,8910 nM,2.22,,,
O=C(c1ccccc1)c1cc(O)c(-c2cc(Cl)ccc2Cl)c(O)c1,> 10000 nM,233 nM,> 42.9,inactive,inactive,363 nM,66.5%,inactive,inactive,6030 nM,1.03,,,
Cc1ccc(Cn2nc(C(=O)N[C@@H]3C(C)(C)[C@@H]4CC[C@@]3(C)C4)cc2-c2ccc(Cl)c(C)c2)cc1,,,,,,,,inactive,,,,,,
O=C(c1cc(O)c(-c2ccncc2)c(O)c1)c1cccs1,> 10000 nM,> 10000 nM,,inactive,inactive,,,,,,,inactive,inactive,
N#Cc1cc(-c2c(O)cc(C(=O)c3ccccc3)cc2O)ccc1F,> 10000 nM,1840 nM,> 5.44,inactive,inactive,2820 nM,52.3%,inactive,inactive,,,,,pEC50 (Cannabinoid receptor 2 [9]; time 7.0 hrs): inactive; Ratio (Cannabinoid receptor 2 [10]): inactive
O=C(c1ccccc1)c1cc(O)c(-c2cc(C(F)(F)F)cc(C(F)(F)F)c2)c(O)c1,1900 nM,215 nM,8.86,inactive,inactive,372 nM,,inactive,inactive,1410 nM,0.91,,22.9%,
O=C(c1ccccc1)c1cc(O)c(-c2ccoc2)c(O)c1,> 10000 nM,1330 nM,> 7.53,inactive,inactive,2750 nM,,,,,,,-18.5%,
Cc1cccc(-c2c(O)cc(C(=O)c3ccccc3)cc2O)c1,4010 nM,320 nM,12.6,inactive,inactive,1660 nM,40.3%,inactive,inactive,> 10000 nM,2.3,,,
O=C(c1cc(O)c(-c2cccc(CO)c2)c(O)c1)c1cccs1,> 10000 nM,8380 nM,> 1.19,inactive,inactive,,,,,,,inactive,inactive,
O=C(c1ccccc1)c1cc(O)c(-c2ccsc2)c(O)c1,> 10000 nM,> 10000 nM,,inactive,inactive,,,,,,,inactive,inactive,
O=C(c1ccccc1)c1cc(O)c(-c2cc(Cl)cc(Cl)c2)c(O)c1,,,39.4,inactive,inactive,,54.8%,inactive,inactive,,0.66,,,
O=C(c1ccccc1)c1cc(O)c(-c2ccnc(Cl)c2)c(O)c1,> 10000 nM,> 10000 nM,,inactive,inactive,,,,,,,inactive,inactive,
O=C(c1cc(O)c(-c2cc(Cl)ccc2Cl)c(O)c1)c1cccs1,> 10000 nM,447 nM,> 22.4,inactive,inactive,141 nM,61%,inactive,inactive,> 10000 nM,1.46,,,
